Test results published in ChEMBL document CHEMBL4507280 (2021).

Assays:
[1] = molecular target: Serine/threonine-protein kinase Nek3 (Homo sapiens) (UniProt P51956); settings: Compound concentration 1000.0 nM
[2] = molecular target: Alpha-2B adrenergic receptor (Homo sapiens) (UniProt P18089); settings: Compound concentration 10.0 uM
[3] = molecular target: Serine/threonine-protein kinase Chk2 (Homo sapiens) (UniProt O96017); settings: Compound concentration 1000.0 nM
[4] = molecular target: Sodium-dependent noradrenaline transporter (Homo sapiens) (UniProt P23975); settings: Compound concentration 10.0 uM
[5] = molecular target: Mitogen-activated protein kinase 7 (Homo sapiens) (UniProt Q13164); settings: Compound concentration 1000.0 nM
[6] = molecular target: Protein kinase C theta type (Homo sapiens) (UniProt Q04759); settings: Compound concentration 1000.0 nM
[7] = molecular target: Hormonally up-regulated neu tumor-associated kinase (Homo sapiens) (UniProt P57058); settings: Compound concentration 1000.0 nM
[8] = molecular target: Dual specificity mitogen-activated protein kinase kinase 3 (Homo sapiens) (UniProt P46734); settings: Compound concentration 1000.0 nM
[9] = molecular target: cAMP-dependent protein kinase catalytic subunit beta (Homo sapiens) (UniProt P22694); settings: Compound concentration 1000.0 nM
[10] = system: Mast/stem cell growth factor receptor Kit (Homo sapiens), P10721 [A829P]; settings: Compound concentration 1000.0 nM
Rattus norvegicus = species on record: Rattus norvegicus; settings: Compound concentration 10.0 uM
[11] = molecular target: Cyclin-dependent kinase 4 (Homo sapiens) (UniProt P11802); settings: Compound concentration 1000.0 nM
[12] = molecular target: Serine/threonine-protein kinase Nek7 (Homo sapiens) (UniProt Q8TDX7); settings: Compound concentration 1000.0 nM
[13] = molecular target: Mitogen-activated protein kinase kinase kinase kinase 3 (Homo sapiens) (UniProt Q8IVH8); settings: Compound concentration 1000.0 nM
[14] = molecular target: Mitogen-activated protein kinase 4 (Homo sapiens) (UniProt P31152); settings: Compound concentration 1000.0 nM
[15] = molecular target: Myotonin-protein kinase (Homo sapiens) (UniProt Q09013); settings: Compound concentration 1000.0 nM
[16] = molecular target: Muscarinic acetylcholine receptor M4 (Homo sapiens) (UniProt P08173); settings: Compound concentration 10.0 uM
[17] = system: Mast/stem cell growth factor receptor Kit (Homo sapiens), P10721 [D816V]; settings: Compound concentration 1000.0 nM
[18] = molecular target: Cytoplasmic tyrosine-protein kinase BMX (Homo sapiens) (UniProt P51813); settings: Compound concentration 1000.0 nM
[19] = molecular target: Dual specificity protein kinase CLK4 (Homo sapiens) (UniProt Q9HAZ1); settings: Compound concentration 1000.0 nM
Sequence of Dual specificity protein kinase CLK4 (Homo sapiens) (Q9HAZ1 whole entry, looked up, canonical isoform): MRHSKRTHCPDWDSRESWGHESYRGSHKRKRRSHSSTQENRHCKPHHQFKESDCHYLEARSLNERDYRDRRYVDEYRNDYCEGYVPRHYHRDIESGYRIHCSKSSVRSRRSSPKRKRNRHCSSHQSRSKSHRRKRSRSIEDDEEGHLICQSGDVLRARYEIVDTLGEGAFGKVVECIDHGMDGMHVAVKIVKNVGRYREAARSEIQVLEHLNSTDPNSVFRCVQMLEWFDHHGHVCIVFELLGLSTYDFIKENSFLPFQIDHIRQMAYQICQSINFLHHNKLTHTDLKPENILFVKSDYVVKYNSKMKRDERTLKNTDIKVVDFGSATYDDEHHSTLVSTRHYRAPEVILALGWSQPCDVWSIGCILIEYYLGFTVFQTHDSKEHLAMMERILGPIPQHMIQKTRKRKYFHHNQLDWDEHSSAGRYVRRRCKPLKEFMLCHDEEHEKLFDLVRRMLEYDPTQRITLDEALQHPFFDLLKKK

[20] = system: Phosphatidylinositol 4,5-bisphosphate 3-kinase catalytic subunit alpha isoform (Homo sapiens), P42336 [I800L]; settings: Compound concentration 1000.0 nM
Sequence of Phosphatidylinositol 4,5-bisphosphate 3-kinase catalytic subunit alpha isoform (Homo sapiens), P42336 [I800L] (P42336 whole entry I800L, canonical isoform): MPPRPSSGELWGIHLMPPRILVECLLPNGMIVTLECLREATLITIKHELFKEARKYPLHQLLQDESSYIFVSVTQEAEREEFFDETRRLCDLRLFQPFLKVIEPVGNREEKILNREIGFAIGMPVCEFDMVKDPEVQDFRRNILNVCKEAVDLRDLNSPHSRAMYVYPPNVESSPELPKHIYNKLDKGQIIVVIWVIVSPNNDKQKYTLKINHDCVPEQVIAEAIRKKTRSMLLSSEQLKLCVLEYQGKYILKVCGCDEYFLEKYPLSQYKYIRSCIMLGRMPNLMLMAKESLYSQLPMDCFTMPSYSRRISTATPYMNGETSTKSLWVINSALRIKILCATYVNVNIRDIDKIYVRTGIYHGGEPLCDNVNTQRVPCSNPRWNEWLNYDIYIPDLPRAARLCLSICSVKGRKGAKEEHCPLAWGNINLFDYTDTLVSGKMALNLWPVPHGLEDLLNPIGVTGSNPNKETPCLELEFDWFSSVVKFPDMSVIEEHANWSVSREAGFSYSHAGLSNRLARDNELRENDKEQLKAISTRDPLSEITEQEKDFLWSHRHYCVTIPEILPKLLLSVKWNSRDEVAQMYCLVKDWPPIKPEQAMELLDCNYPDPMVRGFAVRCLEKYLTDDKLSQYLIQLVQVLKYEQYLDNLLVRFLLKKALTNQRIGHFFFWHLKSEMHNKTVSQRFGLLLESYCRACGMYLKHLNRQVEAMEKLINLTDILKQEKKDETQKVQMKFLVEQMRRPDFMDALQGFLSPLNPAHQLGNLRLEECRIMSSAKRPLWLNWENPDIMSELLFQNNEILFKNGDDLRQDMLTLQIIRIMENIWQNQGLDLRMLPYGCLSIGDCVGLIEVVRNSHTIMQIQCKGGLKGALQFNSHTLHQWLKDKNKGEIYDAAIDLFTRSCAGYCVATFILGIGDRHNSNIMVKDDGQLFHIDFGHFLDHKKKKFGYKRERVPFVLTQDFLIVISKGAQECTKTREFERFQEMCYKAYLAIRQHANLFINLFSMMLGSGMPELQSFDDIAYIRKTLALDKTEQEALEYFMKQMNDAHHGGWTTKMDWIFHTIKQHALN

[21] = molecular target: Activin receptor type-2B (Homo sapiens) (UniProt Q13705); settings: Compound concentration 1000.0 nM
[22] = molecular target: Cyclin-dependent kinase 7 (Homo sapiens) (UniProt P50613); settings: Compound concentration 1000.0 nM
[23] = molecular target: Casein kinase I isoform alpha-like (Homo sapiens) (UniProt Q8N752); settings: Compound concentration 1000.0 nM
[24] = molecular target: Myosin light chain kinase (Homo sapiens) (UniProt Q32MK0); settings: Compound concentration 1000.0 nM
[25] = molecular target: Wee1-like protein kinase (Homo sapiens) (UniProt P30291); settings: Compound concentration 1000.0 nM
Sequence of Wee1-like protein kinase (Homo sapiens) (P30291 whole entry, looked up): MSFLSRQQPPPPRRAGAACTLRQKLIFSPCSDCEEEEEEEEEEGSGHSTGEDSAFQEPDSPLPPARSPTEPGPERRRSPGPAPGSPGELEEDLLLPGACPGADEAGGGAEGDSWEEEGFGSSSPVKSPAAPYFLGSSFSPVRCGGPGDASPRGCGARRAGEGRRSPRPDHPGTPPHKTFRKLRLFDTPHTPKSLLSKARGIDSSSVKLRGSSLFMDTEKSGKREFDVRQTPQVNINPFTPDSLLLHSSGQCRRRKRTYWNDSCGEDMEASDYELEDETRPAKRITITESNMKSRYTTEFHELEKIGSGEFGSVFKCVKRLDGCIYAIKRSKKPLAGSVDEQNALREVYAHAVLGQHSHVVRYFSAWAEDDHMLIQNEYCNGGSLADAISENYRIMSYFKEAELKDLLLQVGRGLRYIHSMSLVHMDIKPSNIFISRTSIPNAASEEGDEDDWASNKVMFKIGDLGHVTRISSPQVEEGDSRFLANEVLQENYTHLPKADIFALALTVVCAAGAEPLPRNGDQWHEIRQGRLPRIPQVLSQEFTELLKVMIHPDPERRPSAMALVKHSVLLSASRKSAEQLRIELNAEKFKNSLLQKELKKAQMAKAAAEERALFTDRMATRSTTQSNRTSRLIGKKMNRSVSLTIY

[26] = molecular target: Atypical kinase COQ8B, mitochondrial (Homo sapiens) (UniProt Q96D53); settings: Compound concentration 1000.0 nM
[27] = molecular target: Tyrosine-protein kinase Fes/Fps (Homo sapiens) (UniProt P07332); settings: Compound concentration 1000.0 nM
[28] = molecular target: Aurora kinase B (Homo sapiens) (UniProt Q96GD4); settings: Compound concentration 1000.0 nM
Sequence of Aurora kinase B (Homo sapiens) (Q96GD4 whole entry): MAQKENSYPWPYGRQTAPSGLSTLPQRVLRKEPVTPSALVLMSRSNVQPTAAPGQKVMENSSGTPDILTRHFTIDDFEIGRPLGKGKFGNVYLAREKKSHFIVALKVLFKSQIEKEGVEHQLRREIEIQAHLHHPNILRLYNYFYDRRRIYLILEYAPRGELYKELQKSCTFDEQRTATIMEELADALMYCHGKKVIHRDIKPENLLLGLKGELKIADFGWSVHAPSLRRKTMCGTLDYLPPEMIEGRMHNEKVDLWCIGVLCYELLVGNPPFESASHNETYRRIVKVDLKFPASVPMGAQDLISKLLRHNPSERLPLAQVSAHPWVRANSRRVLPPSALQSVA

[29] = molecular target: Cyclin-dependent kinase 9 (Homo sapiens) (UniProt P50750); settings: Compound concentration 1000.0 nM
[30] = molecular target: Serine/threonine-protein kinase/endoribonuclease IRE1 (Homo sapiens) (UniProt O75460); settings: Compound concentration 1000.0 nM
[31] = molecular target: Serine/threonine-protein kinase 10 (Homo sapiens) (UniProt O94804); settings: Compound concentration 1000.0 nM
[32] = system: Mast/stem cell growth factor receptor Kit (Homo sapiens), P10721 [V559D,T670I]; settings: Compound concentration 1000.0 nM
[33] = molecular target: Tyrosine-protein kinase FRK (Homo sapiens) (UniProt P42685); settings: Compound concentration 1000.0 nM
[34] = system: Epidermal growth factor receptor (Homo sapiens), P00533 [G719S]; settings: Compound concentration 1000.0 nM
[35] = molecular target: Myosin light chain kinase, smooth muscle (Homo sapiens) (UniProt Q15746); settings: Compound concentration 1000.0 nM
[36] = molecular target: Aurora kinase C (Homo sapiens) (UniProt Q9UQB9); settings: Compound concentration 1000.0 nM
[37] = molecular target: D(4) dopamine receptor (Homo sapiens) (UniProt P21917); settings: Compound concentration 10.0 uM
[38] = molecular target: Macrophage colony-stimulating factor 1 receptor (Homo sapiens) (UniProt P07333); settings: Compound concentration 1000.0 nM
Sequence of Macrophage colony-stimulating factor 1 receptor (Homo sapiens) (P07333 whole entry): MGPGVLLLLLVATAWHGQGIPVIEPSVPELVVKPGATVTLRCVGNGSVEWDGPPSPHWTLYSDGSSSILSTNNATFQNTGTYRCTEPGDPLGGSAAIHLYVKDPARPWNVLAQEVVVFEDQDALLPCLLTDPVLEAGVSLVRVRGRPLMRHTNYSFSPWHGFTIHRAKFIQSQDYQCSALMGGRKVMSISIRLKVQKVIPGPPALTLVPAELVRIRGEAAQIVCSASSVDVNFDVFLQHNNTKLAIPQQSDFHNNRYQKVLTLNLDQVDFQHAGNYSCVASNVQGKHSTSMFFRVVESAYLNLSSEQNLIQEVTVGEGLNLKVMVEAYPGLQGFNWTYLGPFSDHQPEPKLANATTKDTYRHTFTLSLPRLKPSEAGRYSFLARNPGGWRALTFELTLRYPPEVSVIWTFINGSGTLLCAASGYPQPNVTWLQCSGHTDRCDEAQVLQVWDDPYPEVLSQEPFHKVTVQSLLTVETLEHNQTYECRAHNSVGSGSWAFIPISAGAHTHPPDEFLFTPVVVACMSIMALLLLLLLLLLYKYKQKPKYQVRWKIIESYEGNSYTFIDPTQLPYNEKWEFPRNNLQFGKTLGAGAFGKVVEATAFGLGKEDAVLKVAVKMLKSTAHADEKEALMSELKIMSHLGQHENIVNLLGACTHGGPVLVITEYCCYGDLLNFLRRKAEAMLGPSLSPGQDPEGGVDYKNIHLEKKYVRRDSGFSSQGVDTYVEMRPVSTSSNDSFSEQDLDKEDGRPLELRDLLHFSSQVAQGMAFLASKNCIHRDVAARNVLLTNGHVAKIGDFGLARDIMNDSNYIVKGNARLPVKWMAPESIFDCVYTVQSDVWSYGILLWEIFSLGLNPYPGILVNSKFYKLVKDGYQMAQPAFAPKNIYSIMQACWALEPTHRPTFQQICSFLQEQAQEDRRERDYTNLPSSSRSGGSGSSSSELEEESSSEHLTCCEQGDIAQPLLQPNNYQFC

[39] = molecular target: Tyrosine-protein kinase SYK (Homo sapiens) (UniProt P43405); settings: Compound concentration 1000.0 nM
[40] = molecular target: Mitogen-activated protein kinase 11 (Homo sapiens) (UniProt Q15759); settings: Compound concentration 1000.0 nM
[41] = molecular target: 5-hydroxytryptamine receptor 5A (Homo sapiens) (UniProt P47898); settings: Compound concentration 10.0 uM
[42] = molecular target: Ephrin type-A receptor 1 (Homo sapiens) (UniProt P21709); settings: Compound concentration 1000.0 nM
[43] = system: Receptor-type tyrosine-protein kinase FLT3 (Homo sapiens), P36888 [K663Q]; settings: Compound concentration 1000.0 nM
[44] = molecular target: Mitogen-activated protein kinase kinase kinase 20 (Homo sapiens) (UniProt Q9NYL2); settings: Compound concentration 1000.0 nM
Sequence of Mitogen-activated protein kinase kinase kinase 20 (Homo sapiens) (Q9NYL2 2-800 limits assumed): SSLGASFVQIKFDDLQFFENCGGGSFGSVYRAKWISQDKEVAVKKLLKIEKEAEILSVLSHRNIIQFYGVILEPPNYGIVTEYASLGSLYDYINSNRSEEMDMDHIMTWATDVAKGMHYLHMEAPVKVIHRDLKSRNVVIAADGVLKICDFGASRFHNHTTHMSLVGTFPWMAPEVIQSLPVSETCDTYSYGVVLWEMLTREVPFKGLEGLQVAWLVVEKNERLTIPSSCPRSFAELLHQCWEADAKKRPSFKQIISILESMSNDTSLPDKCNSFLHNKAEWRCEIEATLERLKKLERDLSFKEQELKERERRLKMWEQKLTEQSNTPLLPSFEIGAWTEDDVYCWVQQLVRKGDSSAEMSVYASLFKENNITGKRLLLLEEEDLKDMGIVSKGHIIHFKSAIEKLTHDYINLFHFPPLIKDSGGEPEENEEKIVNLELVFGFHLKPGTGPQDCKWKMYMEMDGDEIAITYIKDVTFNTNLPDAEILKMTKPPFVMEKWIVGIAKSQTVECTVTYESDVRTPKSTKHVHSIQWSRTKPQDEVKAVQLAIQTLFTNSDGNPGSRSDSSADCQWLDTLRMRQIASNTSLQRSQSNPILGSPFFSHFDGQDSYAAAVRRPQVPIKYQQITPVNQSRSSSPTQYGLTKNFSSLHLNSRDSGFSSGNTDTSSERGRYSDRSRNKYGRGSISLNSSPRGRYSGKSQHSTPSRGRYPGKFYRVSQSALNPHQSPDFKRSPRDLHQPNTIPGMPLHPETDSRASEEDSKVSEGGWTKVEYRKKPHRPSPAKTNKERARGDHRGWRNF

[45] = molecular target: Rho-associated protein kinase 1 (Homo sapiens) (UniProt Q13464); settings: Compound concentration 1000.0 nM

Sequence of Serine/threonine-protein kinase Chk2 (Homo sapiens) (O96017 whole entry): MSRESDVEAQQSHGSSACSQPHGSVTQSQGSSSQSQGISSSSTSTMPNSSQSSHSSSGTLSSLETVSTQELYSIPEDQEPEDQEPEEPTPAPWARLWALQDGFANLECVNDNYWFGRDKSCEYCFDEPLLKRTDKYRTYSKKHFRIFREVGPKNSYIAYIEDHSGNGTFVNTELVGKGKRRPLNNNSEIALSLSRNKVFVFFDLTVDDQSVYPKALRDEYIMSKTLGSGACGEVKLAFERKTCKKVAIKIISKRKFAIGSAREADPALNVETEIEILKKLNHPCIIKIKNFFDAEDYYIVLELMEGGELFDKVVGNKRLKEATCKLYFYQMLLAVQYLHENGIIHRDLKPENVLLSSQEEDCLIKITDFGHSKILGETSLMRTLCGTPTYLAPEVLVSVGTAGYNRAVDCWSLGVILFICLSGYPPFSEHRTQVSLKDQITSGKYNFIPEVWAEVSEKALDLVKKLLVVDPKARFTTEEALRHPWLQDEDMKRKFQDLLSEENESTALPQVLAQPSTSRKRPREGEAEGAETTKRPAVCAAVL

CCC(=O)N[C@@H]1CC[C@H](C(=O)N(C)c2ccc(-c3nc4ccccc4o3)cc2)C1 [BI 99990]
inactive: residual activity [1] 73% | inhibition [2] 7.05% | residual activity [3] 100% | inhibition [4] 14.5% | residual activity [5] 100% | residual activity [6] 76% | residual activity [7] 100% | residual activity [8] 91% | residual activity [9] 100% | residual activity [10] 100% | inhibition (Rattus norvegicus) 5.21% | residual activity [11] 97% | residual activity [12] 100% | residual activity [13] 100% | residual activity [14] 100% | residual activity [15] 100% | inhibition [16] 5.19% | residual activity [17] 89% | residual activity [18] 98% | residual activity [19] 88% | residual activity [20] 100% | residual activity [21] 96% | residual activity [22] 85% | residual activity [23] 100% | residual activity [24] 100% | residual activity [25] 99% | residual activity [26] 94% | residual activity [27] 96% | residual activity [28] 96% | residual activity [29] 100% | residual activity [30] 100% | residual activity [31] 89% | residual activity [32] 93% | residual activity [33] 100% | residual activity [34] 96% | residual activity [35] 62% | residual activity [36] 100% | inhibition [37] 16.4% | residual activity [38] 100% | residual activity [39] 100% | residual activity [40] 83% | inhibition [41] -3.5% | residual activity [42] 87% | residual activity [43] 100% | residual activity [44] 78% | residual activity [45] 100%

CCC(=O)N[C@H]1CC[C@@H](C(=O)N(C)c2ccc(-c3nc4ccccc4o3)cc2)C1 [BI 99179]
inactive: residual activity [1] 66% | inhibition [2] 5.31% | residual activity [3] 100% | inhibition [4] 2.94% | residual activity [5] 78% | residual activity [6] 84% | residual activity [7] 100% | residual activity [8] 77% | residual activity [9] 100% | residual activity [10] 57% | inhibition (Rattus norvegicus) 3.17% | residual activity [11] 78% | residual activity [12] 98% | residual activity [13] 85% | residual activity [14] 100% | residual activity [15] 100% | inhibition [16] 28.9% | residual activity [17] 86% | residual activity [18] 100% | residual activity [19] 94% | residual activity [20] 63% | residual activity [21] 100% | residual activity [22] 79% | residual activity [23] 100% | residual activity [24] 97% | residual activity [25] 100% | residual activity [26] 74% | residual activity [27] 73% | residual activity [28] 83% | residual activity [29] 95% | residual activity [30] 91% | residual activity [31] 100% | residual activity [32] 100% | residual activity [33] 100% | residual activity [34] 100% | residual activity [35] 69% | residual activity [36] 100% | inhibition [37] 11.2% | residual activity [38] 56% | residual activity [39] 100% | residual activity [40] 82% | inhibition [41] -1.85% | residual activity [42] 100% | residual activity [43] 88% | residual activity [44] 89% | residual activity [45] 100%
